# Measured values reported in paper PMC12081876, “Identification of PTGR2 inhibitors as a new therapeutic strategy for diabetes and obesity” (EMBO Molecular Medicine, 2025).
# Values joined by “and” are separate entries in the source; they are usually repeats but may differ in a detail not shown here. Equal entries are not always repeated.
# What was measured:
# [1] = test system: differentiated 3T3-L1 adipocytes; test: Insulin-stimulated glucose uptake assay by (3H)2-deoxyglucose; format: cell-based, mouse; design: insulin-stimulated glucose uptake, Fig 1J replicates / Figure 5E raw value, insulin-stimulated glucose uptake (replicates): unit not given here
# Procedure: The cell lines, which were tested for mycoplasma contamination and authenticated, were purchased from the Bioresource Collection and Research Center, Taiwan. All cells were cultured at 37 °C, 5% CO2 in a humidified incubator. HEK293T cells were maintained in DMEM (cat. no. SH30003.02, HyClone) supplemented with 10% fetal bovine serum (FBS) (cat. no. 04-001-1A, Biological Industries) and 1% antibiotic/antimycotic solution (cat. no. SV30079.01, HyClone). 3T3-L1 preadipocytes were maintained at ~70% confluence in DMEM with 10% calf serum (cat. no. 16170078, Gibco) and 1% antibiotic/antimycotic solution. For adipocyte differentiation, confluent 3T3-L1 cells (defined as day 0) were exposed to an induction medium containing 10% FBS, 1 μM dexamethasone (cat. no. D4902, Sigma-Aldrich), and 1 μg/ml insulin (Humulin R, Eli Lilly) in DMEM with or without 0.5 mM isobutyl-methylxanthine (cat. no. sc-201188A, Santa Cruz Biotechnology) as indicated. After two days, the medium was replaced with DMEM containing 10% FBS and 1 μg/ml insulin and was replenished every two days until assay.
# Differentiated 3T3-L1 cells were starved with serum-free DMEM containing 0.2% BSA (cat. no. A9647, Sigma-Aldrich). Cells were rinsed twice with KRH buffer (137 mM NaCl, 4.7 mM KCl, 1.85 mM CaCl2, 1.3 mM MgSO4, 50 mM HEPES and 0.1% BSA, pH 7.4), and treated with or without […] insulin in the presence of 20 μM cytochalasin B (cat. no. 11328, Cayman Chemical), a GLUT inhibitor for measuring non-specific glucose uptake, for 30 min. Cells were then incubated with 0.5 μCi [^3H]-2-deoxy-D-Glucose (cat. no. NET328A001MC, PerkinElmer) and 0.1 μM 2-deoxy-D-Glucose (2DG) (cat. no. 14325, Cayman Chemical) for 5 min. Uptake of 2DG was terminated by rapidly removing medium and washing with ice-cold PBS three times. Cells were lysed with 0.1% SDS, and the radioactivity was measured using a liquid scintillation counter. Insulin-mediated glucose uptake was calculated by subtracting insulin-treated glucose uptake with basal glucose uptake.
# [2] = test system: HFHSD-fed obese C57BL6/J mice; test: Intraperitoneal glucose tolerance test (ipGTT); format: in vivo, mouse; design: Figure 2H Average (glucose, ipGTT) / ipGTT / ipGTT glucose, Average / Blood glucose during glucose tolerance test (Figure 5L), Average: unit not given here; details: 100 mg/kg/day
# Procedure: (§1) Glucose tolerance was evaluated by the oral (OGTT) and intraperitoneal glucose tolerance test (ipGTT) after a 6-h fast. For the OGTT, glucose water (1 mg/g) was given by oral gavage, and tail blood glucose was measured with a glucometer (ACCU-CHEK Performa, Roche) at 0, 15, 30, 45, 60, 90, and 120 min. For the ipGTT, tail blood glucose was measured at 0, 15, 30, 45, 60, 90, and 120 min after intraperitoneal injection of glucose water (1 mg/g). For the insulin tolerance test (ITT), mice were fasted for 4 h and then injected intraperitoneally with 1 U/kg of insulin (Humulin R, Eli Lilly). Tail blood glucose was measured at 0, 15, 30, 45, 60, 90, 120, and 180 min.
# [3] = test system: HFHSD-fed obese C57BL6/J mice; test: Body weight / diet-induced obesity in HFHSD-fed mice; format: in vivo, mouse; details: Figure 5J, 100 mg/kg/day, in g (unit assumed)
# [4] = test system: HFHSD-fed obese C57BL6/J mice; test: Insulin tolerance test (ITT); format: in vivo, mouse; design: Figure 2I Average (glucose, ITT) / ITT / ITT glucose, Average / Blood glucose during insulin tolerance test (Figure 5M), Average: unit not given here; details: 100 mg/kg/day
# Procedure: as §1
compound,measurement,setting,value
"CCCCCC(=O)CC[C@H]1[C@H](O)CC(=O)[C@@H]1C/C=C\CCCC(=O)O [13,14-dihydro-15-keto-PGE2]","insulin-stimulated glucose uptake, Fig 1J replicates","[1]; 13,14dh-15kPGE2 5",2.459 and 1.953 and 1.121 and 1.067
same,insulin-stimulated glucose uptake,[1]; differentiated 3T3-L1 adipocytes,showed little effect
Cc1[nH]c2nc(C(C)N3CCN(c4ccccc4)CC3)nn2c(=O)c1Cc1ccc(F)cc1 (stereo not shown) [BPRPT245],"Blood glucose during glucose tolerance test (Figure 5L), Average",[2]; time 0,153.667
same,"Blood glucose during glucose tolerance test (Figure 5L), Average",[2]; time 15,305
same,"Blood glucose during glucose tolerance test (Figure 5L), Average",[2]; time 30,285.933
same,"Blood glucose during glucose tolerance test (Figure 5L), Average",[2]; time 45,242.333
same,"Blood glucose during glucose tolerance test (Figure 5L), Average",[2]; time 60,219.733
same,"Blood glucose during glucose tolerance test (Figure 5L), Average",[2]; time 90,192.133
same,"Blood glucose during glucose tolerance test (Figure 5L), Average",[2]; time 120,185.4
same,"Body weight, Average",[3]; week 0,30.59
same,"Body weight, Average",[3]; week 1,31.2
same,"Body weight, Average",[3]; week 2,31.673
same,"Body weight, Average",[3]; week 3,32.167
same,"Body weight, Average",[3]; week 4,32.92
same,"Body weight, Average",[3]; week 5,32.837
same,"Body weight, Average",[3]; week 6,33.673
same,"Body weight, Average",[3]; week 7,33.323
same,"Body weight, Average",[3]; week 8,33.923
same,"Body weight, Average",[3]; week 9,34.59
same,"Body weight, Average",[3]; week 10,35.623
same,"Body weight, Average",[3]; week 11,36.193
same,"Body weight, Average",[3]; week 12,37.113
same,"Body weight, Average",[3]; week 13,36.957
same,"Body weight, Average",[3]; week 14,38.33
same,"Body weight, Average",[3]; week 15,38.607
same,"Body weight, Average",[3]; week 16,39.303
same,"Body weight, Average",[3]; week 17,40.533
same,"Body weight, Average",[3]; week 18,40.933
same,"Body weight, Average",[3]; week 19,42.11
same,"Body weight, Average",[3]; week 20,41.483
same,"Body weight, Average",[3]; week 21,42.933
same,"Body weight, Average",[3]; week 22,43.33
same,"Body weight, Average",[3]; week 23,44.06
same,"Body weight, Average",[3]; week 24,44.36
same,"Body weight, Average",[3]; week 25,45.28
same,"Blood glucose during insulin tolerance test (Figure 5M), Average",[4]; time 0,210.867
same,"Blood glucose during insulin tolerance test (Figure 5M), Average",[4]; time 15,143.067
same,"Blood glucose during insulin tolerance test (Figure 5M), Average",[4]; time 30,94.067
same,"Blood glucose during insulin tolerance test (Figure 5M), Average",[4]; time 45,78.667
same,"Blood glucose during insulin tolerance test (Figure 5M), Average",[4]; time 60,69.8
same,"Blood glucose during insulin tolerance test (Figure 5M), Average",[4]; time 90,59.667
same,"Blood glucose during insulin tolerance test (Figure 5M), Average",[4]; time 120,71.467
same,"Blood glucose during insulin tolerance test (Figure 5M), Average",[4]; time 180,90.933
